Test results: patent publication US20240002786A1, “SHRINKABLE HYDROGELS” (THE BRIGHAM AND WOMEN'S HOSPITAL, INC., priority 2020, published 2024)

Assay: Hydrogel disc shrinking capacity with polycation solutions
Experimental: Hydrogels were made from gelMA A or B, fish GelMA, and/or HAMA and were prepared at different concentrations. GelMA formulations were dissolved whilst stirring in MilliQ water at 37° C. for 2 h. HAMA formulations were dissolved into MilliQ water overnight under agitation. Both HAMA and gelMA solutions were supplemented with 0.1 wt % Irgacure 2959 (Sigma-Aldrich) prior to UV crosslinking. The prepared polymer solutions were cast in circular PDMS molds (diameter: 4.5 cm) and subsequently UV-irradiated (methacrylate conversion was determined to be >95%). Subsequently, a biopsy punch (Integra Miltex, various diameters) was used to cut cylindrical hydrogels of 2 mm in height.
Shrinking agents were dissolved overnight in either phosphate-buffered saline (170 mM of ionic strength, pH 7.4) or diluted or NaCl-supplemented phosphate buffer (17-700 mM ionic strengths, pH 7.4) for up to 2.0 wt %. Cut hydrogels were initially measured using Vernier calipers (standard error=30 μm) to determine their volumes and subsequently incubated in the various shrinking agent solutions (volume: 2 mL, n=3 for every condition). Unless stated otherwise, incubation was done at room temperature. Hydrogel diameter and height were monitored either over time to determine hydrogel shrinking kinetics or after full dehydration had occurred to determine maximum shrinking capacity (typically after 12 h).

Substance: lysozyme
- hydrogel shrinking (isotonic conditions (170 mM of ionic strength and pH 7.4)): did not shrink at all
- hydrogel shrinking (reduced ionic strength (85 mM, pH 7.4)): hydrogel shrinking was observed
